Peptide text beside a SMILES is read from it.
What follows are molecules tested against T1, GC-C receptor (Homo sapiens, UniProt P25092) (assay: GC-C receptor T-84 cell assay (toxicity, cGMP levels) of culture filtrates). Settings: relative to native STh; culture filtrate; ^2 = no detectable toxicity, set to detection limit 0.0014.
T1 construct: endogenous in cells; host or cells: T-84 cells
Format: cell-based
Protocol: T-84 cells were seeded and cultured in each well of a 24 well plate. After removing the Dulbecco's modified Eagle's medium (DMEM:F12 (1:1) Lonza Walkersville, Inc.), cells were washed 3 times with 0.5 mL DMEM. Cells were incubated with 0.25 mL DMEM containing 1 mM 3-isobutyl-1-methylxanthine (IBMX) for 10 min at 37° C. 0.1 mL of sample (culture filtrate) was added to each well and incubated for 60 min at 37° C. Following incubation, the reaction medium was aspirated, and the cells were lysed with […] HCl at room temperature for 20 min. The lysates were centrifuged at top speed for 10 min and the cGMP levels were measured in control- and agonist-stimulated cells with a direct cGMP enzyme immunoassay kit (Enzo Life Sciences, Inc.) according to the manufacturer's instructions.
The culture filtrate of each mutant was added to the T-84 cells in duplicate, and a serial dilution of culture filtrates with recombinantly expressed native ST was used to generate a standard curve.
Toxicity measured in culture filtrates is a product of intrinsic toxicity (toxicity per mol) and the concentration of the ST mutant. The same is true for antigenicity. […] Since we have no method for accurately measuring ST (mutant) concentrations in culture filtrates, we are not able to directly measure intrinsic toxicities and antigenicities for the ST mutants.
To circumvent this problem we measure toxicity and antigenicity for the ST mutants relative to native ST. This allows us to describe changes in toxicity and antigenicity in mutant culture filtrates. Next, we divide the change in antigenicity by the change in toxicity for each mutant. If the same culture filtrate has been used to measure toxicity and antigenicity this allows us to eliminate the of the concentration.

T1 sequence (P25092 24-1073): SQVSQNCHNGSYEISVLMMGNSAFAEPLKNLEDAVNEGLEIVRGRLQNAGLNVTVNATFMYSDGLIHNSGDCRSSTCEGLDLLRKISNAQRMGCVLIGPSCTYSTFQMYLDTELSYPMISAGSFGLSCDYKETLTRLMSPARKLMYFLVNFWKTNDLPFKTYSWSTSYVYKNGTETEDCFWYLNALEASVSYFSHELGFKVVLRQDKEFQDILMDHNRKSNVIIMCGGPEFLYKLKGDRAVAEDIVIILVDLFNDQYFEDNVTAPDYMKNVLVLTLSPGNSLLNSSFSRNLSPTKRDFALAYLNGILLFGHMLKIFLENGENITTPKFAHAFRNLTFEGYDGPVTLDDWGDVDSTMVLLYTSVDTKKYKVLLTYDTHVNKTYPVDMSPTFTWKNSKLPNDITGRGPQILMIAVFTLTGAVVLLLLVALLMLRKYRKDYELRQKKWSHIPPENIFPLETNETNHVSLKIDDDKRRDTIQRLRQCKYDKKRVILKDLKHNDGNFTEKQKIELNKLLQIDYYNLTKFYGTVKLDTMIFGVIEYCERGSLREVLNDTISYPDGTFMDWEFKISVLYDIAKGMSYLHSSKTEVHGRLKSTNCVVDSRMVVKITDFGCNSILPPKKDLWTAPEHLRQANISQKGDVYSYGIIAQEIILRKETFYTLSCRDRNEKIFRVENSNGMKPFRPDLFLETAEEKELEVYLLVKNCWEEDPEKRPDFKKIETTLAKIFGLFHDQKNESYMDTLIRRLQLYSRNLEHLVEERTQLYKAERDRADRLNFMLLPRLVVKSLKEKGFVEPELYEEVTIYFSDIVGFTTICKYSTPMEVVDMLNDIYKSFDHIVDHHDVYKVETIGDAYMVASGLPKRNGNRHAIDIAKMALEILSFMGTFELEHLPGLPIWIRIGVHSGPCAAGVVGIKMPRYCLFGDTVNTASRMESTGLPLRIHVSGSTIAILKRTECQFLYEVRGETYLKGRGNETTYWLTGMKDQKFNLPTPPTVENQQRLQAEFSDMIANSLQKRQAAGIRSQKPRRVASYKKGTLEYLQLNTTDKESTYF

Structure (SMILES)	Toxicity
CC(C)C[C@@H]1NC(=O)[C@H](CCC(=O)O)NC(=O)[C@@H]2CSSC[C@@H]3NC(=O)[C@H](C)NC(=O)[C@@H]4CCCN4C(=O)[C@H](CC(N)=O)NC(=O)[C@H](CSSC[C@H](NC(=O)[C@H](Cc4ccc(O)cc4)NC(=O)[C@H](CC(N)=O)NC(=O)[C@H](Cc4ccccc4)NC(=O)[C@H](CO)NC(=O)[C@@H](N)CC(N)=O)C(=O)N2)NC(=O)[C@H](CSSC[C@@H](C(=O)N[C@@H](Cc2ccc(O)cc2)C(=O)O)NC(=O)CNC(=O)[C@H]([C@@H](C)O)NC3=O)NC1=O [Mutant S03F] (HELM PEPTIDE1{N.S.F.N.Y.C.C.E.L.C.C.N.P.A.C.T.G.C.Y}$PEPTIDE1,PEPTIDE1,6:R3-11:R3|PEPTIDE1,PEPTIDE1,7:R3-15:R3|PEPTIDE1,PEPTIDE1,10:R3-18:R3$$$V2.0)	0.3871
CC(C)C[C@@H]1NC(=O)[C@H](CCC(=O)O)NC(=O)[C@@H]2CSSC[C@@H]3NC(=O)[C@H](Cc4c[nH]cn4)NC(=O)[C@@H]4CCCN4C(=O)[C@H](CC(N)=O)NC(=O)[C@H](CSSC[C@H](NC(=O)[C@H](Cc4ccc(O)cc4)NC(=O)[C@H](CC(N)=O)NC(=O)[C@H](CO)NC(=O)[C@H](CO)NC(=O)[C@@H](N)CC(N)=O)C(=O)N2)NC(=O)[C@H](CSSC[C@@H](C(=O)N[C@@H](Cc2ccc(O)cc2)C(=O)O)NC(=O)CNC(=O)[C@H]([C@@H](C)O)NC3=O)NC1=O [Mutant A14H] (HELM PEPTIDE1{N.S.S.N.Y.C.C.E.L.C.C.N.P.H.C.T.G.C.Y}$PEPTIDE1,PEPTIDE1,6:R3-11:R3|PEPTIDE1,PEPTIDE1,7:R3-15:R3|PEPTIDE1,PEPTIDE1,10:R3-18:R3$$$V2.0)	< 0.0014^2
CC(C)C[C@@H]1NC(=O)[C@H](CCC(=O)O)NC(=O)[C@@H]2CSSC[C@@H]3NC(=O)[C@H](C)NC(=O)[C@@H]4CCCN4C(=O)[C@H](CC(N)=O)NC(=O)[C@H](CSSC[C@H](NC(=O)[C@H](Cc4ccc(O)cc4)NC(=O)[C@H](CC(C)C)NC(=O)[C@H](CO)NC(=O)[C@H](CO)NC(=O)[C@@H](N)CC(N)=O)C(=O)N2)NC(=O)[C@H](CSSC[C@@H](C(=O)N[C@@H](Cc2ccc(O)cc2)C(=O)O)NC(=O)CNC(=O)[C@H]([C@@H](C)O)NC3=O)NC1=O [Mutant N04L] (HELM PEPTIDE1{N.S.S.L.Y.C.C.E.L.C.C.N.P.A.C.T.G.C.Y}$PEPTIDE1,PEPTIDE1,6:R3-11:R3|PEPTIDE1,PEPTIDE1,7:R3-15:R3|PEPTIDE1,PEPTIDE1,10:R3-18:R3$$$V2.0)	0.2934
CC(C)C[C@@H]1NC(=O)[C@H](CCC(=O)O)NC(=O)[C@@H]2CSSC[C@@H]3NC(=O)[C@H](CCC(=O)O)NC(=O)[C@@H]4CCCN4C(=O)[C@H](CC(N)=O)NC(=O)[C@H](CSSC[C@H](NC(=O)[C@H](Cc4ccc(O)cc4)NC(=O)[C@H](CC(N)=O)NC(=O)[C@H](CO)NC(=O)[C@H](CO)NC(=O)[C@@H](N)CC(N)=O)C(=O)N2)NC(=O)[C@H](CSSC[C@@H](C(=O)N[C@@H](Cc2ccc(O)cc2)C(=O)O)NC(=O)CNC(=O)[C@H]([C@@H](C)O)NC3=O)NC1=O [Mutant A14E] (HELM PEPTIDE1{N.S.S.N.Y.C.C.E.L.C.C.N.P.E.C.T.G.C.Y}$PEPTIDE1,PEPTIDE1,6:R3-11:R3|PEPTIDE1,PEPTIDE1,7:R3-15:R3|PEPTIDE1,PEPTIDE1,10:R3-18:R3$$$V2.0)	< 0.0014^2
C[C@@H]1NC(=O)[C@@H]2CCCN2C(=O)[C@H](CC(N)=O)NC(=O)[C@@H]2CSSC[C@H](NC(=O)[C@H](Cc3ccc(O)cc3)NC(=O)[C@H](CC(N)=O)NC(=O)[C@H](CO)NC(=O)[C@H](CO)NC(=O)[C@@H](N)CC(N)=O)C(=O)N[C@H]3CSSC[C@H](NC1=O)C(=O)N[C@@H]([C@@H](C)O)C(=O)NCC(=O)N[C@H](C(=O)N[C@@H](Cc1ccc(O)cc1)C(=O)O)CSSC[C@H](NC(=O)CNC(=O)[C@H](CCC(=O)O)NC3=O)C(=O)N2 [Mutant L09G] (HELM PEPTIDE1{N.S.S.N.Y.C.C.E.G.C.C.N.P.A.C.T.G.C.Y}$PEPTIDE1,PEPTIDE1,6:R3-11:R3|PEPTIDE1,PEPTIDE1,7:R3-15:R3|PEPTIDE1,PEPTIDE1,10:R3-18:R3$$$V2.0)	< 0.0014^2
